Test system: F. tularensis Schu4
Test: microbe, parasite or virus in culture
Assay type: cell-based
Conditions: Francisella tularensis, SCHU4, 44 h, read-out: IC50 of F. tularensis Schu4 growth inhibition

Question: Which IC50 does the source give for `O=CN(O)CCCP(=O)(O)O` [fosmidomycin] here?
Answer: 5 µM

From patent publication US9272027B1 (priority 2014, dated 2016)
